Molecules are shown by their SMILES. Structures can show the parent of a compound that is named as a salt. Where two headings read alike, the source gives them in different places.

The target in one data set is HER2 (Homo sapiens, UniProt P04626). Briefly: Mobility shift assay, kinase inhibition (HER2). The conditions noted are these: read-out: Kinase inhibitory activity IC50 (nM) HER2. It is filed as biochemical. The procedure:
(§1) Enzyme activity assay was test by the Mobility shift assay method (Expert Opin Drug Discov. 2008, 3(6): 607-621). A 10 mM stock solution of the test compound in DMSO were made after weighing. According to the required concentration, proper quantity of the 10 mM stock solution was dissolved in water to get a work solution with a concentration 5 times the final concentration. And various kinases, EGFR, HER2, HER4 were dissolved into a reaction buffer with a concentration 1.25 times the required concentration (62.5 mM HEPES, pH7.5, 0.001875% Brij-35, 12.5 mM MgCl2, 2.5 mM DTT), and get a enzyme work solution with a concentration 2.5 times the final concentration. At the same time, ATP and FAM tag peptide substrates will be dissolved in the reaction buffer with a concentration of 1.25× to get a substrate and ATP working solution with a concentration 2.5 times the required concentration. Then 5 μl the work solution of compound is added to 384 wells test plate, 5 μl 250 mM EDTA is added to a blank control, the same volume of work solution without drug is added to the negative control (Max). 10 μl Enzyme work solution is added at the same time. After mix gently and hatch for 10 minutes at room temperature, 10 μl substrate and ATP work solution are added to each well. The test plates are placed at 28 degrees for 60 mins. Then 25 μl suspending liquid is added into each reaction well (100 mM HEPES, pH7.5, 0.015% Brij-35, 0.2% Coating Reagent#3, 50 mM EDTA) to quench the enzyme reaction. Finally, the plate is put on Caliper EZ reader to collect conversion rate of the substrate in each well (The phosphorylation ratio of the substrate caused by the kinases). Based on the data described above, the kinase inhibitory of the compound can be calculated as follows: % inh=(Max−conversion)/(Max−Min)×100, wherein % inh is percent inhibition, Max is the conversion ratio of the substrate in negative control well, min is the conversion ratio of the substrate in blank control well, conversion is the conversion rate of substrate in each well with various concentration of the test compound. The % inh value of each concentration of the test compound would be analyzed in Xlift to obtain the corresponding IC50 value, the curve fitting formula is: Y=Bottom+(Top−Bottom)/(1+10^((Log IC50−X)*Hillslope))

Another data set deals with HER4 (Homo sapiens, UniProt Q15303). The data set can be described thus: Mobility shift assay, kinase inhibition (HER4). It is filed as biochemical. The following applies: read-out: Kinase inhibitory activity IC50 (nM) HER4. How it is done:
as §1

The next data set deals with EGFR (Homo sapiens, UniProt P00533). Briefly: Mobility shift assay, kinase inhibition (EGFR). The class given is biochemical. The following applies: read-out: Kinase inhibitory activity IC50 (nM) EGFR. How it is done: as §1
For the next data set, the system named is NCI-H1975. It is filed as in vivo, BALB/c nude mice. The following applies: for Inhibition of growth of NCI-H1975 in nude mice (in words): 60 mpk; for Inhibition of growth of NCI-H1975 in nude mice (in words) / Tolerability in mice: 60 mg/kg; for Tolerability in mice: mouse, in vivo, po; for Inhibition of growth of NCI-H1975 in nude mice (in words) / Tumor volume: NCI-H1975 nude mice; for Tumor volume: 60 mg/kg PO QD. The text has this: Preparation method: dissolve the test compound in 20% PEG400+3% Tween80 to obtain a required concentration; dissolve the control group in 0.5% CMC+0.4% Tween80 to obtain a required concentration.
BALB/c nude mice (Shanghai xipuer-bikai experimental animals company), weight 16-18 g, female. BD matrigel, NCI-H1975 cell (ATCC)
Cells in logarithmic phase were collected. The ratio of medium to matrigel was 1:1. The concentration of cell was adjust to 3×10^7/ml and put into a ice box, then inoculated in each nude mice subcutaneously with 0.2 ml. Then carry out intragastric administration once a day for 5 days and stop administration for 2 days. Administrate for 9 days in total. Dosages are as follows:
The size and weight were measured. The length and width of tumors were measured individually with microcalipers. Tumor volume (V) and relative tumor volume (RTV) was calculated as formula. Day 12, all the nude mouse were killed and the tumors were taken out and pictured. The individual as follows: RTV=Vt/V0, where Vt is and V0 is. and the calculation formula is T/C (%)=mean RTV of the treated group/mean RTV of the control group×100%.
(1) Tumor volume (Tumor Volume, TV), calculation formula: […], wherein a and b presents length and width respectively.
(2) Relative Tumor Volume (RTV), calculation formula: RTV=Vt/V0.
Wherein TV0 is the volume on the day of initial treatment, TVt is the volume on each day of measurement.
(3) The relative tumor increment rate T/C (%), calculation formula: […]
TRTV: treated group RTV; CRTV: negative control group RTV.
Therapeutic effect of compound was expressed in terms of T/C %.

The next data set relates to A431 cell. The data set can be described thus: Proliferation inhibition, A431 cells (CellTiter-Glo). It is filed as cell-based. The following applies: Homo sapiens, A-431, 48 hours. How it is done:
(§2) This example is to determine the proliferation inhibitory activity against wide type of high expression cell lines A431 of EGFR and mutant cell lines NCI-H1975^L858RT790M, the proliferation inhibitory activity in cell-based level of compound is expressed by IC50. The test method is as follows: both cell lines are purchased from American type culture collection (ATCC). The cells are seeded in a white and opaque 384-well culture plate with a proper concentration (A431: 20000 cells/ml medium; H1975: 15000 cells/ml medium), cultured at 37° C. with 5% CO2 for 24 hrs, a series of medicine with gradient concentration is added, generally 10 concentrations, cultured for another 48 hours under the previous conditions. The assays of the proliferation inhibitory activity against the A431 and H1975 cell of the test compounds are performed by the CellTiter-Glo Luminescent Cell Viability Assay and calculate the proliferation inhibitory activity of compound with different concentrations. CellTiter-Glo Luminescent Cell Viability Assay is purchased from Promega. Fit the data of proliferation inhibitory activity against A431 and H1975 of compounds with different concentrations with 4-parameter equation.
In general terms: ATP-based viability assays read luminescence as a measure of living cells.

Data set [1] relates to NCI-H1975 L858R T790M cell. The data set can be described thus: Proliferation inhibition, H1975 cells (CellTiter-Glo). The following applies: Homo sapiens, 48 hours. The class given is cell-based. The procedure:
as §2

A further data set concerns the target T1, EGFR tyrosine kinase (Homo sapiens, UniProt P00533).
T1 construct: purchased Sigma Aldrich
The data set can be described thus: HTRF assay, inhibition of EGFR tyrosine kinase. The class given is biochemical. The following applies: HTRF method. The procedure: The activity of inhibitory against the kinase of the test compound is expressed by IC50. The assays are performed by Homogeneous time-resolved fluorescence (HTRF) method which is as follows: a series of synthesized analogues with gradient concentration are incubated for 5 minutes in enzymatic solution with specific concentration (for EGFR) at room temperature. Then proper amount of substrate and ATP are added into the reaction mixture to start the enzyme reaction. The assays of the specific concentration of compound is measured by Flexstation III of Molecular device company after the stop buffer and detecting liquid are added to the enzyme reaction system and hatch at room temperature for 1 hour. And the activity of inhibitory against the kinase of the test compound with different concentration will be calculated, then according to the 4-parameter equation, fit the inhibitory activity of the test compound with different concentration to get the IC50. EGFR is purchased from Sigma Aldrich. The HTRF KinEASE-TK is purchased from Cisbio Bioassays. ATP is purchased from Sigma Aldrich.
A general note: Time-resolved FRET reads energy transfer from a long-lived donor to a nearby acceptor.

Sequence of HER2 (P04626 23-1255): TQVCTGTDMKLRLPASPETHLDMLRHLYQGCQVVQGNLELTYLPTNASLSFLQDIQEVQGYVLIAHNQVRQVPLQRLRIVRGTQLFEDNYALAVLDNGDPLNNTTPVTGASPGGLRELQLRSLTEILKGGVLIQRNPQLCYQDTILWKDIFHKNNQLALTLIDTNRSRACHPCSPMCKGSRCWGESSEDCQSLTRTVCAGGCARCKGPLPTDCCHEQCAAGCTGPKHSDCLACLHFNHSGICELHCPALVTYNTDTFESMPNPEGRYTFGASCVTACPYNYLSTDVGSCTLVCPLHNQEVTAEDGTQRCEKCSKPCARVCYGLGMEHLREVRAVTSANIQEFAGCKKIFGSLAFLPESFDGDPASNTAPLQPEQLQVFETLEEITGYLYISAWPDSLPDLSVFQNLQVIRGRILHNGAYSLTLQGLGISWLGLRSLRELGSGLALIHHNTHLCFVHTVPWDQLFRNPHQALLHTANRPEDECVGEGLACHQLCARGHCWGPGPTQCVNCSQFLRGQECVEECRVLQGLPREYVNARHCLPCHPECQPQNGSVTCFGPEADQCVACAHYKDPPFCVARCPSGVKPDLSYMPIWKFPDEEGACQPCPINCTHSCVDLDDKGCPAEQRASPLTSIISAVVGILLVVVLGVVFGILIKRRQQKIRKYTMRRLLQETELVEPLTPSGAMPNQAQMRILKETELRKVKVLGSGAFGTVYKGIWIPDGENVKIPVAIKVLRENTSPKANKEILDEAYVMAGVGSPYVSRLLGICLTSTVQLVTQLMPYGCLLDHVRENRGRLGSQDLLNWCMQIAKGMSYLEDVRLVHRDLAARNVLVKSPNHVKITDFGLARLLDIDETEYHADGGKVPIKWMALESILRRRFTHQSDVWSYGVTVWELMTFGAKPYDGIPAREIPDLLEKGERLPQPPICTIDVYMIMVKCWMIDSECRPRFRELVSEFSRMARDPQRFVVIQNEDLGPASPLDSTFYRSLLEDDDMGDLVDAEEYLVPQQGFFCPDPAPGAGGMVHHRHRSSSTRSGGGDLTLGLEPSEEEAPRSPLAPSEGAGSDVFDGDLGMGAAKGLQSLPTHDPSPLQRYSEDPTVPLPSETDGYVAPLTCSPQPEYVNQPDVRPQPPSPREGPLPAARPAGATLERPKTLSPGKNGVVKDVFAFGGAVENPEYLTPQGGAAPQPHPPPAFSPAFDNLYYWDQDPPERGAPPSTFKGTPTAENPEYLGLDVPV
Sequence of HER4 (Q15303 26-1308): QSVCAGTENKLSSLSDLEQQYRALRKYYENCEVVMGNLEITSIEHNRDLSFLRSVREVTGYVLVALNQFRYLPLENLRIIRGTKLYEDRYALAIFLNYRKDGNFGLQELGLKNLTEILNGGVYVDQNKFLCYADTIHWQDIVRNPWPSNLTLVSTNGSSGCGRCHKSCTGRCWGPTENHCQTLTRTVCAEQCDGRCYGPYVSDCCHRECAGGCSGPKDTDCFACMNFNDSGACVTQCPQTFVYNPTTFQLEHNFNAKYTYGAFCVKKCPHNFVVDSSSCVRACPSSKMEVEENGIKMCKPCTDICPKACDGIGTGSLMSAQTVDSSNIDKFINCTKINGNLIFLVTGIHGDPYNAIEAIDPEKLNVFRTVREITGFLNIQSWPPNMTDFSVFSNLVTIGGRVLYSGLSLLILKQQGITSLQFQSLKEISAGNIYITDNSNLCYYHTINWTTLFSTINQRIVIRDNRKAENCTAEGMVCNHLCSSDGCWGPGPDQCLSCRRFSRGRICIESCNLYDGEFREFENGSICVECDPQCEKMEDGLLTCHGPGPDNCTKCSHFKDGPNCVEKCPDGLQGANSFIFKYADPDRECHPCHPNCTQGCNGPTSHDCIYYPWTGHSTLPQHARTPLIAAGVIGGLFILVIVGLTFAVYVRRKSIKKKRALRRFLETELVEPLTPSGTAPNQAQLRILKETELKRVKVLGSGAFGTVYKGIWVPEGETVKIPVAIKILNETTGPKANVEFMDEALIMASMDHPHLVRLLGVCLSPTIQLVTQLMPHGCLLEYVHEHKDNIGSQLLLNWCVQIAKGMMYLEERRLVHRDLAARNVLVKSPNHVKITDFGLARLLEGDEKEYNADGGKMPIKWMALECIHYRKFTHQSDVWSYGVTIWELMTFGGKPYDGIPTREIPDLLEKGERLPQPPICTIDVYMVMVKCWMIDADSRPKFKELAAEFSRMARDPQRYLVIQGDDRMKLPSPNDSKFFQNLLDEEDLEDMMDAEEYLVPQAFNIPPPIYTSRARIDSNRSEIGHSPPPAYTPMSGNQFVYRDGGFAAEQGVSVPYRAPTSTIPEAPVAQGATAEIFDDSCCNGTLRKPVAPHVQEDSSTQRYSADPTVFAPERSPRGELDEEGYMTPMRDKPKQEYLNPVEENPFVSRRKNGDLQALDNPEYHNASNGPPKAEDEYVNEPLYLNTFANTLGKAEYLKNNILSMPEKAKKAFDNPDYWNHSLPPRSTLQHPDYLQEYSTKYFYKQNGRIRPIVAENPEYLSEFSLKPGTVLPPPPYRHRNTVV
Sequence of EGFR (P00533 25-1210): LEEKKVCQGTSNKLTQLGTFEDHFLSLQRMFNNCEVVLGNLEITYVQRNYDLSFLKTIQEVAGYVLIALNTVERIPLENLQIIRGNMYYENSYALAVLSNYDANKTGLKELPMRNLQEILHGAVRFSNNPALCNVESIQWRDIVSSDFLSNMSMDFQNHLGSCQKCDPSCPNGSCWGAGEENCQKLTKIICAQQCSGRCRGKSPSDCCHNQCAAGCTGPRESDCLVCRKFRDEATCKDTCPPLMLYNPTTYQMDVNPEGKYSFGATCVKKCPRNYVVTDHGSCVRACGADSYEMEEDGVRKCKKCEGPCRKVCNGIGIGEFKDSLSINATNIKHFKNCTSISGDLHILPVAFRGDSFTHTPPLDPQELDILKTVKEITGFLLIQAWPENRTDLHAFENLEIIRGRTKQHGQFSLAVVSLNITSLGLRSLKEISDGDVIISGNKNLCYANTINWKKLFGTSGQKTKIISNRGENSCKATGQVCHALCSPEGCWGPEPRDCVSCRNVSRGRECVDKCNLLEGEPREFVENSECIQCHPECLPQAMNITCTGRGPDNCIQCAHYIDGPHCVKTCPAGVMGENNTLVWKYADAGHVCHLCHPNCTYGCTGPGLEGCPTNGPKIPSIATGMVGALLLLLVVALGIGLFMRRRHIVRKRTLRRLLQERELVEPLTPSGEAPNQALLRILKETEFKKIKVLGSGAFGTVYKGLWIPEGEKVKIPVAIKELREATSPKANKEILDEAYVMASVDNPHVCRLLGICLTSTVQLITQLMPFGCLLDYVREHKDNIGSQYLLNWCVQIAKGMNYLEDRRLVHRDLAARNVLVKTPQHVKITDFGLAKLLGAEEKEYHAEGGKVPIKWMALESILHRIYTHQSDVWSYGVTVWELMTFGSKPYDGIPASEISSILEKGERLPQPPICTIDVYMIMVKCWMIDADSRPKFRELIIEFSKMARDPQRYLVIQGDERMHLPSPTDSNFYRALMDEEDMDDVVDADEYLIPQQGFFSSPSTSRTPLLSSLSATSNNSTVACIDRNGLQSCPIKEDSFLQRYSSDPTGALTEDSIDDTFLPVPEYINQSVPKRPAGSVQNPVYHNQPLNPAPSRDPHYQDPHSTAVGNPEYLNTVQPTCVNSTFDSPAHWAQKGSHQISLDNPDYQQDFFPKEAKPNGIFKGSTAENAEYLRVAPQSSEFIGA
T1 sequence (P00533 25-1210): as above

Take `COc1cc2ncnc(Nc3ccc(F)c(Cl)c3)c2cc1NC(=O)C(F)=CCN(C)C` (mixture of isomers) [Compound 1, N-(4-((3-chloro-4-fluorophenyl)amino)-7-methoxyquinazolin-6-yl)-4-(dimethylamino)-2-fluorobut-2-enamide]: the IC50 on HER2 stood at 168 nM; on HER4, 21 nM; at EGFR, 1.7 nM.
On the same counts, the results for `COc1cc2ncnc(Nc3ccc(F)c(Cl)c3)c2cc1NC(=O)/C(F)=C\CN(C)C` [Compound 2-2, (E)-N-(4-((3-chloro-4-fluorophenyl)amino)-7-methoxyquinazolin-6-yl)-4-(dimethylamino)-2-fluorobut-2-enamide] are 369 nM, 63 nM and 4.5 nM.
In the case of `COc1cc2ncnc(Nc3ccc(F)c(Cl)c3)c2cc1NC(=O)/C(F)=C/CN(C)C` [2-1(hydrochloride), (Z)—N-(4-((3-chloro-4-fluorophenyl)amino)-7-methoxyquinazolin-6-yl)-4-(dimethylamino)-2-fluorobut-2-enamide], in the data set with NCI-H1975, the “Inhibition of growth of NCI-H1975 in nude mice (in words)” value was “significantly inhibit the growth” and the Tolerability in mice entry is “well tolerated”.
On to `C=C(F)C(=O)Nc1cc2c(Nc3ccc(F)c(Cl)c3)ncnc2cc1OCCCN1CCOCC1` [Compound 5, N-(4-((3-chloro-4-fluorophenyl)amino)-7-(3-morpholinopropoxy)quinazolin-6-yl)-2-fluoroacrylamide], for which the IC50 in the data set on A431 cell turned out to be 3.2 µM; in data set [1], 2.5 µM; against EGFR tyrosine kinase, 0.39 nM. Moreover, the Tumor volume is on record as 177 ± 17 mm^3 with NCI-H1975 (Day 0); 160 ± 11 mm^3 in the data set on NCI-H1975 (Day 2); 164 ± 27 mm^3 in the data set with NCI-H1975 (Day 4); 147 ± 20 mm^3 in the data set with NCI-H1975 (Day 7); 151 ± 27 mm^3 in the data set on NCI-H1975 (Day 9); 131 ± 33 mm^3 with NCI-H1975 (Day 11). The Tolerability in mice result in the data set on NCI-H1975 is listed as “well tolerated”.
On to `COCCOc1cc2ncnc(Nc3ccc(F)c(Cl)c3)c2cc1NC(=O)C(F)=CCN(C)C` (mixture of isomers) [Compound 3-1, N-(4-((3-chloro-4-fluorophenyl)amino)-7-(2-methoxyethoxy)quinazolin-6-yl)-4-(dimethylamino)-2-fluorobut-2-enamide], for which, at EGFR, the concentration for half-maximal inhibition (IC50) is 2.5 nM.
With `COc1cc2ncnc(Nc3ccc(OCc4ccccn4)c(Cl)c3)c2cc1NC(=O)/C(F)=C/CN(C)C` [Compound 4-1, (Z)—N-(4-((3-chloro-4-(pyridin-2-ylmethoxy)phenyl)amino)-7-methoxyquinazolin-6-yl)-4-(dimethylamino)-2-fluorobut-2-enamide], the IC50 on HER2 was 62 nM.
On to `COc1cc2ncnc(Nc3ccc(F)c(Cl)c3)c2cc1NC(=O)/C(F)=C/CN(C)C` [Compound 2-1, (Z)—N-(4-((3-chloro-4-fluorophenyl)amino)-7-methoxyquinazolin-6-yl)-4-(dimethylamino)-2-fluorobut-2-enamide], for which the results for the IC50 on HER2, at HER4 and on EGFR were 75 nM, 23 nM and 1.3 nM, respectively. Further, the Tumor volume with NCI-H1975 (Day 0) was 190 ± 17 mm^3; in the data set on NCI-H1975 (Day 2), 153 ± 11 mm^3; in the data set with NCI-H1975 (Day 4), 121 ± 27 mm^3; in the data set on NCI-H1975 (Day 7), 130 ± 20 mm^3; in the data set on NCI-H1975 (Day 9), 134 ± 27 mm^3; in the data set with NCI-H1975 (Day 11), 164 ± 33 mm^3. Moreover, the “Inhibition of growth of NCI-H1975 in nude mice (in words)” value in the data set on NCI-H1975 is on record as “strong inhibitory”.
`COc1cc2ncnc(Nc3ccc(OCc4ccccn4)c(Cl)c3)c2cc1NC(=O)/C(F)=C\CN(C)C` [Compound 4-2, (E)-N-(4-((3-chloro-4-(pyridin-2-ylmethoxy)phenyl)amino)-7-methoxyquinazolin-6-yl)-4-(dimethylamino)-2-fluorobut-2-enamide]: the 50% inhibitory concentration (IC50) amounted to 64 nM at HER2, 206 nM at HER4 and 9.5 nM at EGFR.
As for `C=C(F)C(=O)Nc1cc2c(Nc3ccc(F)c(Cl)c3F)ncnc2cc1OCC1CCN(C)CC1` [Compound 6, N-(4-((3-chloro-2,4-difluorophenyl)amino)-7-((1-methylpiperidin-4-yl)methoxy)quinazolin-6-yl)-2-fluoroacrylamide], the values for the half-inhibitory concentration (IC50) (in the data set on A431 cell; in data set [1]; against EGFR tyrosine kinase) were 0.5 µM, 1.2 µM and 0.54 nM, respectively. The Tumor volume in the data set with NCI-H1975 (Day 0) is on record as 179 ± 13 mm^3; with NCI-H1975 (Day 2) it was 154 ± 35 mm^3; in the data set on NCI-H1975 (Day 4), 113 ± 26 mm^3; with NCI-H1975 (Day 7), 66 ± 16 mm^3; in the data set on NCI-H1975 (Day 9), 58 ± 11 mm^3; in the data set with NCI-H1975 (Day 11), 57 ± 11 mm^3. For the same compound, the Tolerability in mice result with NCI-H1975 was “well tolerated”.

By IC50 is commonly meant the concentration that inhibits the measured activity by half.

The values above are taken from patent US9371292B2, “Quinazoline derivative, preparation method therefor, intermediate, composition and application thereof” (SHANGHAI PHARMACEUTICALS HOLDINGS CO., LTD., priority 2011, dated 2016).
